Results taken from US5962314A, “Calcium receptor-active molecules” (priority 1997, dated 1999).
Entries after “also recorded” stand apart in the source; their conditions may differ. Like-named read-outs stand apart in the source and are kept apart here.

What was measured:
Format in all cases: cell-based
[1] = molecular target: T1, parathyroid cell calcium receptor (Bos taurus, UniProt P35384); assay: cell-based
T1 sequence (P35384 20-1085): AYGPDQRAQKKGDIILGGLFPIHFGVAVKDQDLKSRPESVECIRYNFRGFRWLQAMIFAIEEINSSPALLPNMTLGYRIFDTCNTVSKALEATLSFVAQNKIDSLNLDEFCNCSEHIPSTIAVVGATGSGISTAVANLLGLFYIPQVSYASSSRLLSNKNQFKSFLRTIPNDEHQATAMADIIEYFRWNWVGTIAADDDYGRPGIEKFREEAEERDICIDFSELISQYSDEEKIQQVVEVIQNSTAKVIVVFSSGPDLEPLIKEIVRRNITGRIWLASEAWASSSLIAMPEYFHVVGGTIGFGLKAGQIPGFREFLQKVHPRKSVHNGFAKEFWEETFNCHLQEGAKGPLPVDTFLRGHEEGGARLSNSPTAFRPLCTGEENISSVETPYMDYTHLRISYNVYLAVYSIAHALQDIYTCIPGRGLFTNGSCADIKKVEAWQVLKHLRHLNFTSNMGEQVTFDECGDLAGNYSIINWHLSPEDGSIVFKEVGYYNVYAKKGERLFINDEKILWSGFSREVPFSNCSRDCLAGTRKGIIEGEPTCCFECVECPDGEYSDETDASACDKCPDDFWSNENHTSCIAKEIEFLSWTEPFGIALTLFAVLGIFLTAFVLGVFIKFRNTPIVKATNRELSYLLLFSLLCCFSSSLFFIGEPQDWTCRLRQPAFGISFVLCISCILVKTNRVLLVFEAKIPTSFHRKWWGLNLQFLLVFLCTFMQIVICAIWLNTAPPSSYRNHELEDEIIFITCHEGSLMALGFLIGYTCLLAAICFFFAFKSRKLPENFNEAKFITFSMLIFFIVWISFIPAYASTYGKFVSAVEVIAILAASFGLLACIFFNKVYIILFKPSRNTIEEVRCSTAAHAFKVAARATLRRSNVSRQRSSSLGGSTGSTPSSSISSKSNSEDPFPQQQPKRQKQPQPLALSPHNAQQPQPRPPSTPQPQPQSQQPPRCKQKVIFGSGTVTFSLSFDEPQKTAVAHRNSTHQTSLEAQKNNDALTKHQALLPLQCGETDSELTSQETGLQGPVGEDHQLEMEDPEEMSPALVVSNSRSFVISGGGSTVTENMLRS
Description: For example,. bovine parathyroid cells loaded with fura-2 are initially suspended in buffer containing 0.5 mM CaCl2. A test substance is added to the cuvette in a small volume (5-15 μl) and changes in the fluorescence signal are measured. Cumulative increases in the concentration of the test substance are made in the cuvette until some predetermined concentration is achieved or no further changes in fluorescence are noted.
Human parathyroid glands, were obtained from patients undergoing surgical removal of parathyroid tissue for primary or uremic hyperparathyroidism (uremic HPT), and were treated similarly to bovine tissue.
The cells were then pelleted, resuspended in the same buffer, but lacking the ester, and incubated a further 15 minutes at 37° C. The cells were subsequently washed twice with PCB containing 0.5 mM CaCl2 and 0.5% BSA and maintained at room temperature (about 20° C.). Immediately before use, the cells were diluted five-fold with prewarmed 0.5 mM CaCl2 -PCB to obtain a final BSA concentration of 0.1%. The concentration of cells in the cuvette used for fluorescence recording was 1-2×10^6 /ml.
The fluorescence of indicator-loaded cells was measured at 37° C. in a spectrofluorimeter (Biomedical Instrumentation Group, University of Pennsylvania, Philadelphia, Pa.) equipped with a thermostated cuvette holder and magnetic stirrer using excitation and emission wavelengths of 340 and 510 nm, respectively. […] Leakage of dye is dependent on temperature and most occurs within the first 2 minutes after warming the cells in the cuvette. Dye leakage increases only very slowly thereafter. To correct the calibration for dye leakage, cells were placed in the cuvette and stirred at 37° C. for 2-3 minutes. The cell suspension was then removed, the cells pelleted, and the supernatant returned to a clean cuvette. […] This estimate was subtracted from the apparent Fmin.

C-cell calcium receptor = molecular target: T2, C-cell calcium receptor (Rattus norvegicus, UniProt P48442)
T2 construct: Neoplastic C-cells derived from a rat medullary thyroid carcinoma (rMTC 6-23); host or cells: rMTC 6-23 cells
T2 sequence (P48442 20-1079): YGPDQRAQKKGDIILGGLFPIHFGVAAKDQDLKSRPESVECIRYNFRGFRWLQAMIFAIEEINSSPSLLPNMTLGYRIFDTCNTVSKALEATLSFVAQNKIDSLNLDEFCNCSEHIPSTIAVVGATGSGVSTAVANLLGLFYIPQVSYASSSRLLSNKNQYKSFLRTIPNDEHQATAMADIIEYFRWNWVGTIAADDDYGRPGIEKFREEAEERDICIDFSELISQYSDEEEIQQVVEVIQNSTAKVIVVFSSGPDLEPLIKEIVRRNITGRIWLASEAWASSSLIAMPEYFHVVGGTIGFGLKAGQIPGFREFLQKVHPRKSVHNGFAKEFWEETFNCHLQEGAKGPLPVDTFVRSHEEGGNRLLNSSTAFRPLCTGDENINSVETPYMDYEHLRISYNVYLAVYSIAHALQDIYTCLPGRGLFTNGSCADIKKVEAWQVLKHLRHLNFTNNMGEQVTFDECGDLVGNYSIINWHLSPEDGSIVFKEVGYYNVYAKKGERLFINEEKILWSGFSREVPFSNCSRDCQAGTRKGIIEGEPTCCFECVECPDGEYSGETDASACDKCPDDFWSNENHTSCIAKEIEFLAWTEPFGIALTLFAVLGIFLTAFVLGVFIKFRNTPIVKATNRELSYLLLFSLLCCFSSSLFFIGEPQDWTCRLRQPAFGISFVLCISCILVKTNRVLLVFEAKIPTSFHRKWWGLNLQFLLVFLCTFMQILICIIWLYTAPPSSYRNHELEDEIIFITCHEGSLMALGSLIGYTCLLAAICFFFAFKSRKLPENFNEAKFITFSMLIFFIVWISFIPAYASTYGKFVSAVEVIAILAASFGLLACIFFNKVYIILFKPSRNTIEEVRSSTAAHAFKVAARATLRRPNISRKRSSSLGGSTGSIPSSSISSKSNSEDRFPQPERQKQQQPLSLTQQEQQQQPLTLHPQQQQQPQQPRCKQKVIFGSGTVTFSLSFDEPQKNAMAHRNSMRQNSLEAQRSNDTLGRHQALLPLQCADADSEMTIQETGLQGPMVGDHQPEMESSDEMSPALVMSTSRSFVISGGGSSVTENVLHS
Description: To assess the effects of molecular polycations on C-cells, a neoplastic cell line, derived from a rat medullary thyroid carcinoma (rMTC 6-23 cells) was used.

[2] = molecular target: T3, bovine parathyroid cell calcium receptor (Bos taurus, UniProt P35384); assay: Cl- current in Xenopus oocytes expressing BoPCaR 1; settings: for effect on Cl- current: BoPCaR 1-injected oocytes; for effect in control oocytes: uninjected, water or rat liver mRNA oocytes
T3 construct: expressed in transfected cells; host or cells: Xenopus laevis oocytes injected with BoPCaR 1 cRNA
T3 sequence (P35384 20-1085): T1 sequence (P35384 20-1085)
Description: Several pharmacological and biochemical criteria were used to identify this clone as encoding a bona fide bovine parathyroid Ca^2+ receptor. […] These responses increased markedly over a period of one to four days after injection of the eggs with cRNA prepared from the BoPCaR 1 cDNA. Furthermore, the ranges of the concentrations of the two cations eliciting this response were very similar to those shown previously to act on bovine parathyroid cells in vitro.
Xenopus oocytes were injected with BoPCaR 1, the 5.3 Kb cDNA encoding a bovine parathyroid cell calcium receptor as described in Example 25. After two to three days, Cl^- currents were examined in the oocytes using a two-electrode voltage clamp.
Xenopus oocytes were injected with BoPCaR 1 as described in Example 25. After two to three days, Cl^- currents were examined in the oocytes using two electrode voltage clamp.

| SMILES | effect on [Ca2+]i [1] | effect on [Ca2+]i ([1]; 10 μM, Ca2+-free) | effect on [Ca2+]i ([1]; 100 μM, Ca2+-free) | effect on extracellular Ca2+-evoked increases in [Ca2+]i ([1]; neomycin B 30 μM / maximally effective concentration) | effect on intracellular Ca2+ ([1]; neomycin B 30 μM, protamine 1 μg/ml) | effect on [Ca2+]i in C-cells (C-cell calcium receptor) | effect on Cl- current [2] | effective concentration range, Cl- current ([2]; BoPCaR 1 oocytes) [µM] | effect on Cl- current in absence of extracellular Ca2+ [2] | effect in control oocytes [2] | effect on response to extracellular Ca2+ [1] | effect on [Ca2+]i in absence of extracellular Ca2+ ([1]; Ca2+-free buffer) | effect on extracellular Ca2+ concentration-response curve [2] |
| --- | --- | --- | --- | --- | --- | --- | --- | --- | --- | --- | --- | --- | --- |
| NC[C@@H]1O[C@H](O[C@H]2[C@@H](O)[C@H](O[C@@H]3[C@@H](O)[C@H](N)C[C@H](N)[C@H]3O[C@H]3O[C@H](CN)[C@@H](O)[C@H](O)[C@H]3N)O[C@@H]2CO)[C@H](N)[C@@H](O)[C@@H]1O [Neomycin] | evoked rapid and transient increases in [Ca^2+ ]i | did not by itself cause an increase in [Ca^2+ ]i | evoked a rapid and transient increase in [Ca^2+ ]i | blocks transient, but does not block steady-state increases in [Ca^2+ ]i; also recorded: blocked transient, but not steady-state increases in [Ca^2+ ]i | mobilization of intracellular Ca^2+ | fails to affect basal or evoked increases in C-cells; also recorded: without effect on basal [Ca^2+ ]i; also recorded: fail to affect the calcium receptors on C-cells or osteoclasts | large inward currents | 20 to 100 | persist despite removal of extracellular Ca^2+ |  |  |  |  |
| NCCCNCCCCNCCCNCCCNCCCNC(=O)Cc1c[nH]c2ccccc12 [NPS 019] |  |  |  |  |  | mobilization of intracellular Ca^2+ | caused oscillatory increases in the Cl^- |  | persisted in the absence of extracellular Ca^2+ | Neither NPS 017 nor NPS 019 elicited changes in Cl^- |  |  |  |
| COc1cccc([C@@H](C)NCCCc2ccccc2Cl)c1 [NPS R-568, (R)-(+)-N-[3-(2-chlorophenyl)propyl]-α-methyl-3-methoxybenzylamine] | evokes increases in [Ca^2+ ]i in bovine parathyroid cells in a stereospecific manner |  |  |  |  |  | caused increases in the Cl^- |  | abolished in the absence of extracellular Ca^2+ | failed to evoke responses | shifts the concentration-response curve for extracellular Ca^2+; also recorded: shift to the left in the concentration-response curve for extracellular Ca^2+ | fails to evoke increases in [Ca^2+ ]i; also recorded: do not cause the mobilization of intracellular Ca^2+ | potentiated the responses to submaximal concentrations of extracellular Ca^2+; also recorded: shift the extracellular Ca^2+ concentration-response curve to the left |
